pIC50: −log10 of the molar value.
tested on: MOLM-13 cells; assay: MOLM-13 Cell Proliferation Assay (indicator of DHODH inhibition); assay type: cell-based; conditions: Homo sapiens, 72 Hours of culture, CellTiter-Glo, no uridine
In short: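 Proliferation readout via CellTiter-Glo luminescence after 72 h compound treatment (37 °C, 5% CO2, 0.5% DMSO) of MOLM-13 cells seeded at 10^4 per well in RPMI 1640/10% FBS, used as a DHODH-inhibition indicator since these cells rely on de novo pyrimidine synthesis.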

pIC50 | SMILES
8.70 | Oc1c(F)cccc1C1c2[nH]c3ccc(Cl)cc3c2CCN1c1nccc(C(F)(F)F)n1 (stereo not shown) [Compound 252, 2-{6-chloro-2-[4-(trifluoromethyl)pyrimidin-2-yl]-2,3,4,9-tetrahydro-1H-pyrido[3,4-b]indol-1-yl}-6-fluorophenol]
8.44 | Oc1cccc(C2c3[nH]c4ccc(Cl)cc4c3CCN2c2nccc(C(F)(F)F)n2)c1F (stereo not shown) [Compound 256, 3-{6-chloro-2-[4-(trifluoromethyl)pyrimidin-2-yl]-2,3,4,9-tetrahydro-1H-pyrido[3,4-b]indol-1-yl}-2-fluorophenol]
8.89 | Cc1ccc(C2c3[nH]c4ccc(Cl)cc4c3CCN2c2nccc(C(F)(F)F)n2)c(O)c1 (stereo not shown) [Compound 257, 2-{6-chloro-2-[4-(trifluoromethyl)pyrimidin-2-yl]-2,3,4,9-tetrahydro-1H-pyrido[3,4-b]indol-1-yl}-5-methylphenol]
7.55 | Cc1ccc(C2c3[nH]c4ccc(Cl)cc4c3CCN2c2nccc(C(F)(F)F)n2)cc1O (stereo not shown) [Compound 258, 5-{6-chloro-2-[4-(trifluoromethyl)pyrimidin-2-yl]-2,3,4,9-tetrahydro-1H-pyrido[3,4-b]indol-1-yl}-2-methylphenol]
9.00 | Cc1cccc(C2c3[nH]c4ccc(Cl)cc4c3CCN2c2nccc(C(F)(F)F)n2)c1F (stereo not shown) [Compound 259, 6-chloro-1-(2-fluoro-3-methylphenyl)-2-[4-(trifluoromethyl)pyrimidin-2-yl]-2,3,4,9-tetrahydro-1H-pyrido[3,4-b]indole]
8.20 | FC(F)(F)c1ccnc(N2CCc3c([nH]c4ccc(Cl)cc34)C2c2ccc(-n3ccnc3)cc2)n1 (stereo not shown) [Compound 260, 6-chloro-1-[4-(1H-imidazol-1-yl)phenyl]-2-[4-(trifluoromethyl)pyrimidin-2-yl]-2,3,4,9-tetrahydro-1H-pyrido[3,4-b]indole]
8.92 | FC(F)(F)c1ccnc(N2CCc3c([nH]c4ccc(Cl)cc34)C2c2ccc(-n3cccn3)cc2)n1 (stereo not shown) [Compound 261, 6-chloro-1-[4-(1H-pyrazol-1-yl)phenyl]-2-[4-(trifluoromethyl)pyrimidin-2-yl]-2,3,4,9-tetrahydro-1H-pyrido[3,4-b]indole]
8.89 | FC(F)(F)c1ccnc(N2CCc3c([nH]c4ccc(Cl)cc34)C2c2ccc(N3CCOCC3)cc2)n1 (stereo not shown) [Compound 262, 6-chloro-1-[4-(morpholin-4-yl)phenyl]-2-[4-(trifluoromethyl)pyrimidin-2-yl]-2,3,4,9-tetrahydro-1H-pyrido[3,4-b]indole]
8.60 | Fc1ccc(C2c3[nH]c4ccc(Cl)cc4c3CCN2c2nccc(C(F)(F)F)n2)c(F)c1F (stereo not shown) [Compound 263, 6-chloro-2-[4-(trifluoromethyl)pyrimidin-2-yl]-1-(2,3,4-trifluorophenyl)-2,3,4,9-tetrahydro-1H-pyrido[3,4-b]indole]
8.89 | Cc1ccc(C2c3[nH]c4ccc(Cl)c([N+](=O)[O-])c4c3CCN2c2nccc(C(F)(F)F)n2)c(F)c1F (stereo not shown) [Compound 266, 6-chloro-1-(2,3-difluoro-4-methylphenyl)-5-nitro-2-[4-(trifluoromethyl)pyrimidin-2-yl]-2,3,4,9-tetrahydro-1H-pyrido[3,4-b]indole]
8.57 | Fc1cc(Cl)ccc1C1c2[nH]c3ccc(Cl)cc3c2CCN1c1nccc(C(F)(F)F)n1 (stereo not shown) [Compound 267, 6-chloro-1-(4-chloro-2-fluorophenyl)-2-[4-(trifluoromethyl)pyrimidin-2-yl]-2,3,4,9-tetrahydro-1H-pyrido[3,4-b]indole]
9.70 | Fc1cc(Br)ccc1C1c2[nH]c3ccc(Cl)cc3c2CCN1c1nccc(C(F)(F)F)n1 (stereo not shown) [Compound 268, 1-(4-bromo-2-fluorophenyl)-6-chloro-2-[4-(trifluoromethyl)pyrimidin-2-yl]-2,3,4,9-tetrahydro-1H-pyrido[3,4-b]indole]
7.01 | FC(F)(F)c1ccnc(N2CCc3c([nH]c4ccc(Cl)cc34)C2c2ccc(-n3cnnc3)cc2)n1 (stereo not shown) [Compound 269, 6-chloro-1-[4-(4H-1,2,4-triazol-4-yl)phenyl]-2-[4-(trifluoromethyl)pyrimidin-2-yl]-2,3,4,9-tetrahydro-1H-pyrido[3,4-b]indole]

Source: patent US20250186437A1, “CARBOLINE COMPOUNDS AND USE THEREOF” (PTC Therapeutics, Inc., priority 2021, published 2025)
